US20220047532A1, “AMPA RECEPTOR ANTAGONISTS SPECIFIC FOR CALCIUM PERMEABLE AMPA RECEPTORS AND METHODS OF TREATMENT THEREWITH” (priority 2018, published 2022)
“Also recorded” adds a separate entry of the source. Where two headings read alike, the source gives them in different places.

How the values were obtained:
[1] = tested on: MeCP2 S421 phosphorylation; assay: KA-induced MeCP2 S421 phosphorylation, immunoblot, cortical E18+10DIV cultures; format: cell-based, rat; details: Ctx
Procedure: (§1) Nuclei were isolated as previously described (81). […] Blots were incubated with the following primary antibodies: MeCP2 (S421) (1:1000) and total-MeCP2 (1:1000, kind gifts from Dr. Michael Greenberg, Harvard Medical School), phospho-CaMKII (T286) (1:250, Cell Signaling), pan-CaMKII (1:250, Cell Signaling), ([…] (1:5000, Sigma), and lamin A/C (1:1000, Cell Signaling).

[2] = tested on: MeCP2 S421 phosphorylation; assay: KA-induced MeCP2 S421 phosphorylation, immunoblot, hippocampal E18+10DIV cultures; format: cell-based, rat; details: H
Procedure: as §1

[3] = tested on: CaMKII T286 phosphorylation; format: cell-based
Procedure: as §1

[4] = tested on: MeCP2 S421 phosphorylation; assay: KCl-induced MeCP2 S421 phosphorylation, immunoblot, cortical cultures; format: cell-based, rat
Procedure: as §1

[5] = tested on: MeCP2 S421 phosphorylation; assay: KCl-induced MeCP2 S421 phosphorylation, immunoblot, hippocampal cultures; format: cell-based, rat
Procedure: as §1

[6] = tested on: PTZ-induced seizures; details: in vivo; cited from earlier work
[7] = tested on: CaMKII phosphorylation; assay: In vivo hypoxic seizure-induced CaMKII phosphorylation; details: HS model
Procedure: as §1

[8] = tested on: GluA2-lacking AMPAR; assay: AMPAR eEPSC currents in CDKL5 R59X mouse model; format: cell-based
[9] = tested on: CDKL5 R59X mouse; assay: Behaviour of CDKL5 R59X mice after acute in vivo treatment
[10] = tested on: MeCP2 S421 phosphorylation; assay: In vivo hypoxic seizure (HS)-induced MeCP2 S421 phosphorylation in P10 rats; design: species or system rat; details: for MeCP2 S421 phosphorylation 3 hrs post-HS: P10 rats, normalized to mean C+V control (100±8%), HS+V 157±11%, 20 mg/kg NBQX, 20 mg/kg IEM-1460, nimodipine 10 mg·kg, i.p.; for Baseline MeCP2 phosphorylation in control rats: control rats without HS
Procedure: as §1

[11] = tested on: E18+10DIV cultured hippocampal neurons; assay: Fura-2 ratiometric Ca2+ imaging of KA-induced Ca2+ influx, hippocampal cultures; format: cell-based, rat; details: hippocampus
Procedure: (§2) Ratiometric Ca^2+ imaging was performed on E17/18+10 DIV hippocampal and cortical cultures, plated at 1×10^5 cells/well in 24 well plates. […] After 10 min bathed in 100 μM D-APV (Tocris), cells were stimulated using fast (<2 min) bath application of 30 μM kainate (KA). […] Changes in Ca^2+ influx were assessed by change in 340/380 nm excitation ratio from baseline in individual somas (using regions of interests) in NisElements software (see Supp. Methods).

[12] = tested on: E18+10DIV cultured cortical neurons; assay: Fura-2 ratiometric Ca2+ imaging of KA-induced Ca2+ influx, cortical cultures; format: cell-based, rat; details: cortex
Procedure: as §2

[13] = tested on: tdTom+ cells; assay: tdTom+ cell labelling after PTZ seizures at P9-11 in FosTRAP mice; format: in vivo, mouse; details: NBQX 1 hr post PTZ stage 5 seizures; preliminary cohort n=3/group
Procedure: Seizures will be induced as described above. For the KA model, beginning 1 hour after KA seizure, mice will receive doses of either NBQX (20 mg/kg i.p.), […] IEM 1460 (10 mg/kg i.p.), or saline every 12 hrs×4 doses as per prior protocols with ELS. For the PTZ model, we will follow our prior protocol, and deliver the NBQX (20 mg/kg i.p.), IEM 1460 (10 mg/kg i.p.) or saline at 1 hr post seizure on P9, P10, and […] (FIG. 33). Mice will be euthanized at P15, P30, or P60. Two sets of groups will be prepared (n=12/group): the first for perfusion and subsequent IHC to determine whether treatment decreases the number of tdTom+ cells. Confocal imaging of at least 2 fields/section and 3 sections/mouse in defined areas of hippocampal CA subfields and dentate gyrus (hippocampus: Bregma −1.46 to −2.70 mm (interaural 2.34 mm-1.1 mm) or primary auditory cortex (Bregma −2.18 mm to −3.64 mm (interaural 1.5 mm to 0.16 mm) will be used. MAP2, Iba-1, GFAP, and GAD67 will be used to confirm cell identity. Cell counts will be performed using ImageJ software and group differences analyzed by 2-way ANOVA/Bonferroni correction. Multivariate linear and logistic regression will be used to evaluate effects of age, gender, treatment groups and seizure severity in ELS. […]

[14] = tested on: hypoxic seizure (HS) model; details: post-seizure in vivo treatment; previously shown (6, 12); cited from earlier work
[15] = tested on: primary auditory cortex (AI) silent synapses; assay: PTZ-ELS auditory cortex critical period plasticity; format: in vivo; details: PTZ P9-11; 1 dose following seizure induction each day
[16] = tested on: hippocampal CA1 AMPAR function, silent synapses, LTP; assay: Hippocampal slice electrophysiology after P10 hypoxic seizures, post-seizure treatment; format: in vivo, rat
Procedure: FIG. 23 ELS induce altered hippocampal CA1 AMPAR function, silent synapses, and synaptic plasticity. Hippocampal brains slices removed at 48-72 h after P10 hypoxic seizures (HS) cause (A) enhanced AMPAR-mediated sEPSCs, (B) inwardly rectifying AMPAR eEPSCs, and (C) a precocious loss of silent synapses indicated by both decreased failure rates and silent synapse fraction. These changes yield attenuated synaptic plasticity both in early-life and as adults: (D) reduced eEPSC amplitude in post-HS 48-72 hrs from whole-cell LTP pairing protocol; (E,F) decreased potentiation from extracellular LTP recordings.

[17] = KA 100 μM, in the presence of APV, NBQX, NASPM 150 μM, nimodipine 5 μM
[18] = KA-induced, 5 μM KN93, KN92 5 μM, EGTA 1 mM
[19] = KA 100 μM, 100 μM D-APV alone, vs. KA, NaOH+DMSO treated controls
[20] = KA+APV plus NBQX 50 μM or NASPM 150 μM, vs. KA+APV condition (100±3%)

## NCCCNCCCCNCCCNC(=O)Cc1cccc2ccccc12 [NASPM, 1-Napthylacetyl Spermine]
[1]; [17]
  MeCP2 S421 phosphorylation: 12±2%
[2]; [17]
  MeCP2 S421 phosphorylation: 30±9%
[3]; Ctx, in the presence of D-APV
  KA-induced CaMKII phosphorylation: 25±5%
[3]; H, in the presence of D-APV
  KA-induced CaMKII phosphorylation: 28±7%
[4]; Ctx, in the presence of D-APV
  KCl-mediated MeCP2 phosphorylation: 32±13%
[5]; H, in the presence of D-APV
  KCl-mediated MeCP2 phosphorylation: 11±6%

## O=C(O)CN(CCOCCOCCN(CC(=O)O)CC(=O)O)CC(=O)O [EGTA]
[1]; [18]
  MeCP2 S421 phosphorylation: 72±7%
[2]; [18]
  MeCP2 S421 phosphorylation: 66±7%

## COc1ccc(S(=O)(=O)Nc2ccccc2CN(C)C/C=C/c2ccc(Cl)cc2)cc1 [KN92]
[1]; [18]
  MeCP2 S421 phosphorylation: 99±3%
[2]; [18]
  MeCP2 S421 phosphorylation: 97±3%

## Br.C[N+](C)(C)CCCCCNCC12CC3CC(CC(C3)C1)C2.[Br-] [IEM-1460]
[1]; p<0.0049, stimulus and concentration not stated
  Activity-dependent MeCP2 phosphorylation in cultured neurons in vitro: reduced
[2]; p<0.0361, stimulus and concentration not stated
  Activity-dependent MeCP2 phosphorylation in cultured neurons in vitro: reduced
[6]
  Effect in PTZ-induced seizures: anti-seizure effects
[7]
  Seizure-induced CaMKII phosphorylation in vivo: prevented
[8]
  Enhanced AMPAR currents: decreased; also recorded: attenuated
[9]
  Seizure behavior latency: rescued
[9]; acute in vivo treatment
  Autistic like impairment in social behavior / social deficits: rescued; also recorded: improves
  Spatial and temporal working memory in Y maze (% spontaneous alternating behavior): rescued; also recorded: improves
[10]
  MeCP2 S421 phosphorylation 3 hrs post-HS: 106±11%
  Baseline MeCP2 phosphorylation in control rats: did not affect

## N[C@H](CCCP(=O)(O)O)C(=O)O [D-APV]
[11]; KA 30 μM, D-APV 100 μM, normalized to KA only (100±3%)
  KA-induced Ca2+ influx, normalized mean peak ratio: 73±3%
[1]; [19]
  MeCP2 S421 phosphorylation: 76±13%
[2]; [19]
  MeCP2 S421 phosphorylation: 89±13%
[3]; Ctx, pre-treatment with D-APV alone
  KA-induced CaMKII phosphorylation: 81±11%
[3]; H, pre-treatment with D-APV alone
  KA-induced CaMKII phosphorylation: 86±9%
[12]; KA 30 μM, D-APV 100 μM, normalized to KA only (100±2%)
  KA-induced Ca2+ influx, normalized mean peak ratio: 74±3%
[4]; cortical neurons, 10 DIV, D-APV alone
  KCl-mediated MeCP2 phosphorylation: 87±21%
[5]; hippocampal neurons, 10 DIV, D-APV alone
  KCl-mediated MeCP2 phosphorylation: 73±21%

## NS(=O)(=O)c1cccc2c1c([N+](=O)[O-])cc1nc(O)c(O)nc12 [NBQX]
[11]; [20]
  Remaining NMDAR-insensitive Ca2+ influx: 31±2%
[1]; [17]
  MeCP2 S421 phosphorylation: 0±0.3%
[2]; [17]
  MeCP2 S421 phosphorylation: 3±5%
[13]
  Number of tdTom+ cells: decrease; also recorded: reduction
[3]; Ctx, in the presence of D-APV
  KA-induced CaMKII phosphorylation: 18±4%
[3]; H, in the presence of D-APV
  KA-induced CaMKII phosphorylation: 21±3%
[12]; [20]
  Remaining NMDAR-insensitive Ca2+ influx: 3±2%
[4]; Ctx, in the presence of D-APV
  KCl-mediated MeCP2 phosphorylation: 35±5%
[4]; cortex, NBQX alone, p=0.0069
  KCl-induced phosphorylation of MeCP2 S421: reversed
[14]
  Later-life seizures, altered synaptic plasticity, and autistic-like social deficits: prevents
[15]
  Subsequent A1 plasticity: permits
  Synapse unsilencing: prevents
[7]
  Seizure-induced CaMKII phosphorylation in vivo: prevented
[16]; 48-72 hr post HS and as P60 adults
  Impaired LTP: protects
[16]; post-seizure treatment
  Enhanced AMPAR function following ELS: attenuates
  Premature silent synapse loss: reverses
[5]; H, in the presence of D-APV
  KCl-mediated MeCP2 phosphorylation: 21±6%
[5]; hippocampus, NBQX alone, p=0.0003
  KCl-induced phosphorylation of MeCP2 S421: reversed
[10]
  MeCP2 S421 phosphorylation 3 hrs post-HS: 81±8%
  Baseline MeCP2 phosphorylation in control rats: did not affect

## CC(=O)OCOC(=O)CN(CCOCCOCCN(CC(=O)OCOC(C)=O)CC(=O)OCOC(C)=O)CC(=O)OCOC(C)=O [EGTA-AM]
[1]; 100 μM EGTA-AM, p=0.0001
  Phosphorylation of MeCP2 S421: reduced
[2]; 100 μM EGTA-AM, p=0.0057
  Phosphorylation of MeCP2 S421: reduced

## COCCOC(=O)C1=C(C)NC(C)=C(C(=O)OC(C)C)C1c1cccc([N+](=O)[O-])c1 (centres unmarked) [nimodipine]
[1]; [17]
  MeCP2 S421 phosphorylation: 4±1%
[2]; [17]
  MeCP2 S421 phosphorylation: 21±6%
[3]; Ctx, in the presence of D-APV
  KA-induced CaMKII phosphorylation: 23±9%
[3]; H, in the presence of D-APV
  KA-induced CaMKII phosphorylation: 33±6%
[4]; Ctx, in the presence of D-APV
  KCl-mediated MeCP2 phosphorylation: 10±6%
[5]; H, in the presence of D-APV
  KCl-mediated MeCP2 phosphorylation: 0±1%
[10]
  MeCP2 S421 phosphorylation 3 hrs post-HS: 103±9%

## COc1ccc(S(=O)(=O)N(CCO)c2ccccc2CN(C)C/C=C/c2ccc(Cl)cc2)cc1 [KN93]
[1]; [18]
  MeCP2 S421 phosphorylation: 10±3%
[2]; [18]
  MeCP2 S421 phosphorylation: 3±1%
